This is an account of results in patent US8383581B2, “Short-chain peptides as parathyroid hormone (PTH) receptor agonist” (Cadila Healthcare Limited, priority 2009, dated 2013).

Where a SMILES comes first, the peptide text is derived from it. [ ]: non-standard residue; d: D form. ξ: configuration not given here. ξBip(2'-Et-4'-OMe) = CCc1cc(OC)ccc1-c1ccc(CC(N)C(=O)O)cc1; Arg(NO2) = N=C(NCCC[C@H](N)C(=O)O)N[N+](=O)[O-]; ξαMePhe(2,6-F2) = CC(N)(Cc1c(F)cccc1F)C(=O)O; ξαMePhe(2-F) = CC(N)(Cc1ccccc1F)C(=O)O; ξαMeW = CC(N)(Cc1c[nH]c2ccccc12)C(=O)O; hhPhe = N[C@@H](CCCc1ccccc1)C(=O)O; hArg = N=C(N)NCCCC[C@H](N)C(=O)O; Cit = NC(=O)NCCC[C@H](N)C(=O)O; ξαMeNle = CCCCC(C)(N)C(=O)O; Nle = CCCC[C@H](N)C(=O)O; Orn = NCCC[C@H](N)C(=O)O; ξαMeP = CC1(C(=O)O)CCCN1; Ac5c = NC1(C(=O)O)CCCC1; Ac3c = NC1(C(=O)O)CC1; Aib = CC(C)(N)C(=O)O

Format in all cases: in vitro ADME
Data set [1] is described as follows: Stability of peptides in human plasma. Particulars: human, plasma; for metabolised at 24 h, 2 μM: pH 7.8. In outline:
(§1)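 Peptides at 2 μM final incubated 0–24 h at 37 °C (50 mM triethanolamine-HCl, pH 7.8) in each matrix, matrix level set to degrade ~50% PTH(1-34) in 1 h; TFA-quenched, C18 HPLC at 206 nm with ESI-MS peak identification; percent degradation from peak areas at each time point.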

The nature of data set [2]: Stability of peptides in human liver microsomes. Particulars: human, microsomes; for % degradation of peptides in 24 h when incubated with liver microsomes: 2 μM, pH 7.8. In a few lines:
as §1
(In general: Microsomes from liver hold many membrane-bound enzymes, among them those of drug oxidation.)

The nature of data set [3]: Stability of peptides in simulated intestinal fluid (pH 7.5). Particulars: pH 7.5; for half-life: simulated gi fluid; for % degradation of peptides in 24 h when incubated with simulated intestinal fluid: 2 μM. In outline: as §1
Data set [4] can be described thus: Stability of peptides in simulated gastric fluid (pH 1.5; HCl, NaCl and Pepsin). Particulars: pH 1.5; for % degradation of peptides in 24 h when incubated with simulated gastric fluid: 2 μM; for half-life: simulated gi fluid.

The term half-life denotes the time in which the quantity being followed falls by half. Read a low half-life as rapid decline.

`CCCC[C@H](NC(=O)C(C)(Cc1ccccc1F)NC(=O)[C@H](CCC(N)=O)NC(=O)[C@@H](NC(=O)[C@H](CCC(=O)O)NC(=O)C(C)(C)NC(=O)[C@@H](NC(=O)C1(N)CCCC1)C(C)C)[C@@H](C)CC)C(=O)N[C@@H](Cc1c[nH]cn1)C(=O)N[C@@H](CCC(N)=O)C(=O)N[C@@H](CCCCNC(=N)N)C(=O)NC(C)(C)C(=O)N[C@@H](CCCNC(=N)N[N+](=O)[O-])C(=O)NC(C)(Cc1c(F)cccc1F)C(N)=O` (some centres unmarked) [Seq. ID. 270] (H-[Ac5c]V[Aib]EIQ[ξαMePhe(2-F)][Nle]HQ[hArg][Aib][Arg(NO2)][ξαMePhe(2,6-F2)]-NH2): in data set [1], the “half-life (t1/2) in human plasma” value was “(9) h” and the metabolised at 24 h, 2 μM is 78%. Besides, in data set [2], the half-life was 30 min and the “% degradation of peptides in 24 h when incubated with liver microsomes” value (shortened to “% degradation … with liver microsomes”) was determined as 100%. Besides, in data set [3], the half-life is 30 min and the “% degradation of peptides in 24 h when incubated with simulated intestinal fluid” value (shortened to “% degradation … with simulated intestinal fluid”) was 100%. In data set [4], the “% degradation of peptides in 24 h when incubated with simulated gastric fluid” value (“% degradation … with simulated gastric fluid” for short) was 100% and the half-life is 30 min.
In data set [1], `CCCC[C@H](NC(=O)C(C)(Cc1c(F)cccc1F)NC(=O)[C@H](CCC(N)=O)NC(=O)[C@@H](NC(=O)[C@H](CCC(=O)O)NC(=O)C(C)(C)NC(=O)[C@@H](NC(=O)C1(N)CCCC1)C(C)C)[C@@H](C)CC)C(=O)N[C@@H](Cc1c[nH]cn1)C(=O)N[C@@H](CCC(N)=O)C(=O)N[C@@H](CCCN)C(=O)N[C@@H](C)C(=O)N[C@@H](CCCNC(N)=O)C(=O)NC(Cc1ccc(-c2ccc(OC)cc2CC)cc1)C(=O)N[C@@H](CCCc1ccccc1)C(N)=O` (some centres unmarked) [Seq. ID. 829] (H-[Ac5c]V[Aib]EIQ[ξαMePhe(2,6-F2)][Nle]HQ[Orn]A[Cit][ξBip(2'-Et-4'-OMe)][hhPhe]-NH2) registered a half-life greater than 1380 min and a metabolised at 24 h, 2 μM of 1%. Also, in data set [2], the half-life is 120 min and the “% degradation … with liver microsomes” value amounted to 84%. In data set [3], the half-life is greater than 1320 min and the “% degradation … with simulated intestinal fluid” value is reported as 05%. Besides, in data set [4], the “% degradation … with simulated gastric fluid” value was 43% and the half-life is 240 min.
For the compound `CCCC[C@H](NC(=O)C(C)(Cc1c(F)cccc1F)NC(=O)[C@H](CCC(N)=O)NC(=O)[C@@H](NC(=O)[C@H](CCC(=O)O)NC(=O)C(C)(C)NC(=O)[C@@H](NC(=O)C1(N)CC1)C(C)C)[C@@H](C)CC)C(=O)N[C@@H](Cc1c[nH]cn1)C(=O)N[C@@H](CCC(N)=O)C(=O)N[C@@H](CCCCNC(=N)N)C(=O)N1CCCC1(C)C(=O)N[C@@H](CCCCN)C(=O)NC(C)(Cc1ccccc1F)C(N)=O` (some centres unmarked) [Seq. ID. 75] (H-[Ac3c]V[Aib]EIQ[ξαMePhe(2,6-F2)][Nle]HQ[hArg][ξαMeP]K[ξαMePhe(2-F)]-NH2), in data set [1], the “half-life (t1/2) in human plasma” value is “(9) h” and the metabolised at 24 h, 2 μM was 78%. Also, in data set [2], the half-life is 30 min and the “% degradation … with liver microsomes” value is reported as 100%. Besides, in data set [3], the half-life is 30 min and the “% degradation … with simulated intestinal fluid” value is recorded as 100%. Further, in data set [4], the “% degradation … with simulated gastric fluid” value is 100% and the half-life was 30 min.
Consider `CCCCC(C)(NC(=O)[C@H](CC(C)C)NC(=O)[C@H](CCC(N)=O)NC(=O)[C@@H](NC(=O)[C@H](CCC(=O)O)NC(=O)C(C)(C)NC(=O)[C@@H](NC(=O)C1(N)CC1)C(C)C)[C@@H](C)CC)C(=O)N[C@@H](Cc1c[nH]cn1)C(=O)N[C@@H](CCC(N)=O)C(=O)N[C@@H](CCCCNC(=N)N)C(=O)N[C@@H](C)C(=O)N[C@@H](CCCCNC(=N)N)C(=O)NC(C)(Cc1c[nH]c2ccccc12)C(=O)N[C@@H](CCCc1ccccc1)C(N)=O` (some centres unmarked) [Seq. ID. 945] (H-[Ac3c]V[Aib]EIQL[ξαMeNle]HQ[hArg]A[hArg][ξαMeW][hhPhe]-NH2), for which, in data set [1], the “half-life (t1/2) in human plasma” value is “(9) h” and the metabolised at 24 h, 2 μM is 75%. Also, in data set [2], the half-life amounted to 30 min and the “% degradation … with liver microsomes” value was 100%. In data set [3], the half-life is 30 min and the “% degradation … with simulated intestinal fluid” value is reported as 100%. In data set [4], the “% degradation … with simulated gastric fluid” value is recorded as 100% and the half-life is 30 min.
